In one data set the test system is PDE4. As to the kind of experiment: Inhibition of PDE4 activity ([3H]cAMP hydrolysis, cytosol from human neutrophils). In kind it is biochemical. Conditions: 0.5 μM cAMP, Motapizone 1 μM to suppress PDE3, 15 min at 37° C. Here is the method: Method for Measuring Inhibition of PDE4 Activity
PDE4 activity was determined as described by Thompson et al. (Adv Cycl Nucl Res 10: 69-92, 1979) with some modifications (Bauer and Schwabe, Naunyn-Schmiedeberg's Arch Pharmacol 311: 193-198, 1980). At a final assay volume of 200 μl (96 well microtiter plates) the assay mixture contained 20 mM Tris (pH 7.4), 5 mM MgCl2, 0.5 μM cAMP, [^3H]cAMP (about 30,000 cpm/assay), the test compound and an aliquot of cytosol from human neutrophils which mainly contains PDE4 activity as described by Schudt et al. (Naunyn-Schmiedeberg's Arch Pharmacol 344: 682-690, 1991); the PDE3-specific inhibitor Motapizone (1 μM) was included to suppress PDE3 activity originating from contaminating platelets. Serial dilutions of the compounds were prepared in DMSO and further diluted 1:100 (v/v) in the assays to obtain the desired final concentrations of the inhibitors at a DMSO concentration of 1% (v/v) which by itself only slightly affected PDE4 activity.
After preincubation for 5 min at 37° C., the reaction was started by the addition of substrate (cAMP) and the assays were incubated for further 15 min at 37° C. 50 μl of 0.2 N HCl was added to stop the reaction and the assays were left on ice for about 10 min. Following incubation with 25 μg 5′-nucleotidase (Crotalus atrox snake venom) for 10 min at 37° C., the assays were loaded on QAE Sephadex A-25 (1 ml bed volume). The columns were eluted with 2 ml of 30 mM ammonium formiate (pH 6.0) and the eluate was counted for radioactivity. Results were corrected for blank values (measured in the presence of denatured protein) which were below 5% of total radioactivity. […] The IC50-values for the compounds according to the invention for the inhibition of the PDE4 activity were determined from the concentration-inhibition curves by nonlinear-regression.

Regarding `COc1cc2c(cc1OC)[C@H]1CCCC[C@H]1N=C2c1ccc(C(C)=NNC(C)=O)cc1` [Compound 4, Acetic acid {1-[4-((4aR,10bR)-8,9-dimethoxy-1,2,3,4,4a,10b-hexahydro-phenanthridin-6-yl)-phenyl]-ethylidene}-hydrazide], the “Inhibition of the PDE4 activity, −log IC50” value (shortened to “Inhibition … −log IC50”) in the data set on PDE4 was determined as 8.95. Same read-out and setting: in the case of `COc1cc2c(cc1OC)[C@H]1CCCC[C@H]1N=C2c1ccc(C(C)=NNC(=O)CC#N)cc1` [Compound 2, Cyano-acetic acid {1-[4-((4aR,10bR)-8,9-dimethoxy-1,2,3,4,4a,10b-hexahydro-phenanthridin-6-yl)-phenyl]-ethylidene}-hydrazide] it was 8.61; in that of `COc1cc2c(cc1OC)[C@H]1CCCC[C@H]1N=C2c1ccc(C(C)=NNC(=O)c2ccncc2)cc1` [Compound 3, Isonicotinic acid {1-[4-((4aR,10bR)-8,9-dimethoxy-1,2,3,4,4a,10b-hexahydro-phenanthridin-6-yl)-phenyl]-ethylidene}-hydrazide], 8.71. Still for that read-out and setting: in the case of `COc1cc2c(cc1OC)[C@H]1CCCC[C@H]1N=C2c1ccc(C(C)=NNC(N)=O)cc1` [Compound 6, 1-[4-((4aR,10bR)-8,9-Dimethoxy-1,2,3,4,4a,10b-hexahydro-phenanthridin-6-yl)-phenyl]-ethanone-semicarbazone] it was 8.64. By melting point is commonly meant the temperature of the solid-liquid transition. Compound `COc1cc2c(cc1OC)[C@H]1CCCC[C@H]1N=C2c1ccc(C(C)=NNC(=O)c2cccnc2)cc1` [Compound 1, Nicotinic acid {1-[4-((4aR,10bR)-8,9-dimethoxy-1,2,3,4,4a,10b-hexahydro-phenanthridin-6-yl)-phenyl]-ethylidene}-hydrazide] registered a melting point of 162 °C. Besides, the “Inhibition … −log IC50” value in the data set with PDE4 amounted to 8.62. As for `COc1cc2c(cc1OC)C1CCCCC1N=C2c1cccc(C(C)=NNC(N)=O)c1` (centres unmarked) [Compound 37, 1-[3-((4aR10bR)-8,9-Dimethoxy-1,2,3,4,4a,10b-hexahydro-phenanthridin-6-yl)-phenyl]-ethanone-semicarbazone], in the data set on PDE4, the “Inhibition … −log IC50” value came out at 8.75.

On to `COc1cc2c(cc1OC)[C@H]1CCCC[C@H]1N=C2c1ccc(C(=NNC(N)=O)c2ccccc2)cc1` [Compound 7, 1-[4-((4aR,10bR)-8,9-Dimethoxy-1,2,3,4,4a,10b-hexahydro-phenanthridin-6-yl)-phenyl]-1-phenyl-methanone-semicarbazone], for which, in the data set on PDE4, the “Inhibition … −log IC50” value is reported as 9.38.

(Values after patent publication US20060189645A1, “Novel 6-phenylphenantridines” (Altana Pharma AG, priority 2003, published 2006).)
